# Values joined by “and” are separate entries in the source; they are usually repeats but may differ in a detail not shown here. Equal entries are not always repeated. “Also recorded” adds a separate entry of the source. Marks after values point to notes of the source that are not given here.
# Experiments:
# [1] = test system: permeabilized REF52 cells; assay: ATP-dependent ventral stress fiber retraction in Triton X-100-permeabilized cells; format: cell-based, rat
# Description: Detergent treatment leads to depletion of all soluble factors from the cells and, in particular, of ATP. Supplementing the medium with ATP induces the myosin 2-dependent contraction of stress fibers. […] We locally photoconverted spots along the length of ventral stress fibers, and tracked both retraction of the unconverted stress fiber ends and longitudinal movements of the photoconverted actin spots after adding ATP into the solution (Fig. 1C, left panel).
# For stress fiber imaging, REF52 cells were transfected with mEos3.2-Actin expression plasmid and seeded onto a 35 mm glass bottom dish (Iwaki, 3930-035) 24 h prior to the assay.
# The protocol of the cell permeabilization and cytoskeleton contractility assay has been described previously ([Tee and Bershadsky, 2016]; [Tee et al., 2015]). […] All drug remained in the buffer during the entire period of observation.
# REF52 fibroblast = assay: traction force microscopy in living cells; format: cell-based, rat; conditions: 30 μM, within 10 min
# Method: Traction force microscopy with embedded beads was performed as described previously ([Rafiq et al., 2019]). Briefly, soft polydimethylsiloxanes CY 52-276A and CY 52-276B (Dow Corning, 0008602722) were mixed at the ratio 1:1 and Sylgard 184 crosslinker was used to tune the stiffness of the gel for proper force measurement of cells (∼95 kPa). The mixture was spin-coated onto a clean coverslip to achieve the thickness of ∼7 μm and cured for 1 h at 80°C. The surface of the gel was silanized with (3-aminopropyl)triethoxysilane for 2 h, followed by incubation of 0.04 μm FluoSpheres carboxylate-modified microspheres, dark red fluorescent (660/680) beads (Thermo Fisher Scientific, 1871942) at 1×10^6 beads/ml in a solution of 0.1 M NaHCO3 for 30 min. Before seeding the cells, the coverslips with beads were further incubated for 30 min with 10 μg/ml fibronectin, also dissolved in 0.1 M NaHCO3. Traction forces were calculated from bead displacement fields visualized by using live cell imaging as described by [Tseng et al. (2012)], and using the online ImageJ plugin (https://sites.google.com/site/qingzongtseng/tfm for plugin software details). The computation algorithm as published by [Sabass et al. (2008)] was used. The distribution of traction force magnitude was presented as a heat map (Fig. 1A), and mean magnitude values were calculated for each cell.
# HFF cells = assay: centripetal movement of myosin 2 filaments at transverse arcs in living cells (PIV); format: cell-based, human; conditions: treated 45 min, 12.5, 25 or 50 μM
# Description: (§1) We also tested inhibition of contraction of another type of contractile actomyosin structure, i.e. of the transverse arcs formed by periodically arranged myosin and actin filaments in fibroblasts ([Hu et al., 2017]). We measured the velocity of movement of transverse arcs in human foreskin fibroblast (HFF) cells plated on a circular fibronectin island ([Tee et al., 2015]). In control cells, filaments of non-muscle myosin 2 were visualized by expression of GFP-tagged myosin regulatory light chain (GFP-MRLC) localized to the transverse arcs and moved towards the cell center with an average velocity of 0.152 μm/min, as determined by particle image velocimetry (PIV) (Fig. 2A) ([Hu et al., 2017)]. […] Permeabilization of the same cells by using Triton X-100 removed G-actin and ATP. […]
# (§2) Particle Image Velocimetry (PIV) analysis was used to measure average instantaneous speed of filaments of non-muscle myosin 2 visualized by expression of GFP-MRLC. […] To quantify the retraction speed of stress fiber ends, we manually selected all ends labeled by unconverted mEOS3.2-actin and arranged them into kymographs for every cell. The retraction speed for each end during imaging was calculated manually using the kymograph. The average retraction speed of stress fibers was calculated for each cell and plotted.
# permeabilized HFF cells = assay: ATP-induced centripetal movement of myosin 2 filaments in permeabilized cells (PIV); format: cell-based, human; conditions: 50 μM
# Description: as §1, §2
# [2] = target: T1, human non-muscle myosin 2A (Homo sapiens, UniProt P35579); assay: actin-activated ATPase assay (NADH-linked); format: biochemical; conditions: phosphorylated by MLCK; 10 µM actin, 25°C; approximate; read-out: IC50, actin-activated MgATPase activity
# T1 construct: A heavy meromyosin (HMM)-like fragment of human non-muscle myosin 2A; made in house; host or cells: Sf9 insect cells (baculovirus co-infection)
# Method: (§3) Two methods are primarily used to assess actomyosin function in vitro. […] In the absence of actin, myosins have very low basal ATPase rates that are activated 10–1000-fold by the addition of actin ([De La Cruz and Ostap, 2009]).
# (§4) A heavy meromyosin (HMM)-like fragment of human non-muscle myosin 2A was prepared by expression in Sf9 insect cells as described ([Kengyel et al., 2010]). Cells were co-infected with a virus driving the expression of the truncated myosin heavy chain as well as one driving the expression of regulatory and essential light chains. The myosin was phosphorylated through smooth muscle myosin light chain kinase (MLCK) prior to use ([Nagy et al., 2013]). Full-length Drosophila myosin 5 ([Lu et al., 2020]), Drosophila myosin 7a ([Yang et al., 2009]) and a forced dimeric HMM-like fragment of bovine myosin 10 ([Takagi et al., 2014]) were also produced in Sf9 cells. Drosophila myosin 5 was co-expressed with Drosophila ELC and calmodulin, whereas the HMM-like fragment of myosin 10 was co-expressed with calmodulin. Skeletal muscle HMM was produced by chymotrypic digestion of full-length rabbit fast skeletal muscle myosin ([Margossian and Lowey, 1982]). […]
# (§5) Actin-activated ATPase assays were carried out using an NADH-linked assay in a Cary 50 spectrophotometer as previously described ([Heissler et al., 2015]). […] Absorbance was monitored at 340 nm. […]
# [3] = target: rabbit skeletal muscle myosin 2; assay: actin-activated ATPase assay (NADH-linked); format: biochemical; conditions: tissue purified, mixed isoforms; approximate
# Method: as §3, §4, §5
# MLCK = MLCK (Homo sapiens, UniProt Q15746); assay: myosin light chain kinase phosphorylation of non-muscle myosin 2A (HPLC-mass spectrometry); format: biochemical; conditions: 100 μM
# [4] = test system: rabbit skeletal muscle myosin 2 HMM; assay: gliding actin in vitro motility assay; format: biochemical
# Description: Here, skeletal muscle myosin 2 HMM is bound to a nitrocellulose-coated coverslip and its ability to translocate Rhodamine–phalloidin-labeled actin filaments observed (Table 1). […] The lack of reversibility could be due to covalent modification of myosin by SMIFH2. […] A higher drug concentration was required to achieve ∼50% of the gliding velocity than was required for similar inhibition of the actin-activated ATPase. This was also observed when blebbistatin was used to inhibit actin gliding ([Limouze et al., 2004]; [Sakamoto et al., 2005]).
# The gliding actin in vitro motility assay was conducted at 30°C in 50 mM KCl, 4 mM MgCl2, 0.1 mM EGTA, 30 mM MOPS pH 7.2, 0.5% methylcellulose, 1 mM ATP, using an oxygen-savaging system consisting of 2.5 μg/ml glucose oxidase, 45 μg/ml catalase, 2.5 mg/ml glucose and […] DTT ([Sellers et al., 1993]). The rate of movement of actin filaments was determined as described previously ([Homsher et al., 1992]).
# Drosophila myosin 5 = Drosophila myosin 5 (Drosophila melanogaster, UniProt A1Z6Z9); assay: actin-activated ATPase assay (NADH-linked); format: biochemical; conditions: approximate
# Description: (§6) There are 40 myosin heavy chain genes from twelve classes in the human genome ([Berg et al., 2001]). Many, but not all of these myosins are present in other metazoan species including Drosophila ([Yamashita et al., 2000]). Although all of these myosins contain a conserved motor domain, the tail portions are very diverse, allowing the myosins to perform a plethora of cellular functions. […] The assays regarding bovine myosin 10 are particularly interesting since this myosin plays a role in filopodia initiation and formation in mammalian cells ([Kerber and Cheney, 2011]), a process that also involves formin action.
# (§7) A heavy meromyosin (HMM)-like fragment of human non-muscle myosin 2A was prepared by expression in Sf9 insect cells as described ([Kengyel et al., 2010]). Cells were co-infected with a virus driving the expression of the truncated myosin heavy chain as well as one driving the expression of regulatory and essential light chains. The myosin was phosphorylated through smooth muscle myosin light chain kinase (MLCK) prior to use ([Nagy et al., 2013]). Full-length Drosophila myosin 5 ([Lu et al., 2020]), Drosophila myosin 7a ([Yang et al., 2009]) and a forced dimeric HMM-like fragment of bovine myosin 10 ([Takagi et al., 2014]) were also produced in Sf9 cells. Drosophila myosin 5 was co-expressed with Drosophila ELC and calmodulin, whereas the HMM-like fragment of myosin 10 was co-expressed with calmodulin. Skeletal muscle HMM was produced by chymotrypic digestion of full-length rabbit fast skeletal muscle myosin ([Margossian and Lowey, 1982]). Rabbit skeletal muscle actin was prepared as previously described ([Lehrer and Kerwar, 1972]).
# (§8) Actin-activated ATPase assays were carried out using an NADH-linked assay in a Cary 50 spectrophotometer as previously described ([Heissler et al., 2015]). […] The final amount of DMSO added to the samples was 2%. The assay conditions were 10 µM actin, 50 mM KCl, 10 mM MOPS, 2 mM MgCl2, 0.1 mM EGTA, 1 mM ATP, 10 mM MOPS pH 7.0 at 25°C. […] Absorbance was monitored at 340 nm.
# Drosophila myosin 7a = target: T2, Drosophila myosin 7a (Drosophila melanogaster, UniProt Q9V3Z6); assay: actin-activated ATPase assay (NADH-linked); format: biochemical; conditions: approximate
# T2 construct: made in house; host or cells: Sf9 cells
# Description: as §6, §7, §8
# bovine myosin 10 = target: T3, bovine myosin 10 (Bos taurus, UniProt P79114); assay: actin-activated ATPase assay (NADH-linked); format: biochemical; conditions: approximate
# T3 construct: a forced dimeric HMM-like fragment of bovine myosin 10; dimerisation element (forced dimer); made in house; host or cells: Sf9 cells
# Description: as §6, §7, §8
# mDia1 = test system: mDia1; parameters: method as in Rizvi et al., 2009; conditions: actin assembly in the presence of profilin in vitro; ref Rizvi et al., 2009; read-out: Half-maximal inhibition of mDia1; cited from earlier work
# [5] = test system: Formins: CYK-1, Cdc12 and Fus1, Bn1, mDia2; parameters: method as in Rizvi et al., 2009; conditions: CYK-1, Cdc12, Fus1, Bn1, mDia2; ref Rizvi et al., 2009; read-out: IC50 values for formins from a variety of species; cited from earlier work
# pure actin = test system: pure actin; parameters: method as in Rizvi et al., 2009; conditions: ref Rizvi et al., 2009; cited from earlier work
# T1 sequence (P35579 1-1337 limits assumed): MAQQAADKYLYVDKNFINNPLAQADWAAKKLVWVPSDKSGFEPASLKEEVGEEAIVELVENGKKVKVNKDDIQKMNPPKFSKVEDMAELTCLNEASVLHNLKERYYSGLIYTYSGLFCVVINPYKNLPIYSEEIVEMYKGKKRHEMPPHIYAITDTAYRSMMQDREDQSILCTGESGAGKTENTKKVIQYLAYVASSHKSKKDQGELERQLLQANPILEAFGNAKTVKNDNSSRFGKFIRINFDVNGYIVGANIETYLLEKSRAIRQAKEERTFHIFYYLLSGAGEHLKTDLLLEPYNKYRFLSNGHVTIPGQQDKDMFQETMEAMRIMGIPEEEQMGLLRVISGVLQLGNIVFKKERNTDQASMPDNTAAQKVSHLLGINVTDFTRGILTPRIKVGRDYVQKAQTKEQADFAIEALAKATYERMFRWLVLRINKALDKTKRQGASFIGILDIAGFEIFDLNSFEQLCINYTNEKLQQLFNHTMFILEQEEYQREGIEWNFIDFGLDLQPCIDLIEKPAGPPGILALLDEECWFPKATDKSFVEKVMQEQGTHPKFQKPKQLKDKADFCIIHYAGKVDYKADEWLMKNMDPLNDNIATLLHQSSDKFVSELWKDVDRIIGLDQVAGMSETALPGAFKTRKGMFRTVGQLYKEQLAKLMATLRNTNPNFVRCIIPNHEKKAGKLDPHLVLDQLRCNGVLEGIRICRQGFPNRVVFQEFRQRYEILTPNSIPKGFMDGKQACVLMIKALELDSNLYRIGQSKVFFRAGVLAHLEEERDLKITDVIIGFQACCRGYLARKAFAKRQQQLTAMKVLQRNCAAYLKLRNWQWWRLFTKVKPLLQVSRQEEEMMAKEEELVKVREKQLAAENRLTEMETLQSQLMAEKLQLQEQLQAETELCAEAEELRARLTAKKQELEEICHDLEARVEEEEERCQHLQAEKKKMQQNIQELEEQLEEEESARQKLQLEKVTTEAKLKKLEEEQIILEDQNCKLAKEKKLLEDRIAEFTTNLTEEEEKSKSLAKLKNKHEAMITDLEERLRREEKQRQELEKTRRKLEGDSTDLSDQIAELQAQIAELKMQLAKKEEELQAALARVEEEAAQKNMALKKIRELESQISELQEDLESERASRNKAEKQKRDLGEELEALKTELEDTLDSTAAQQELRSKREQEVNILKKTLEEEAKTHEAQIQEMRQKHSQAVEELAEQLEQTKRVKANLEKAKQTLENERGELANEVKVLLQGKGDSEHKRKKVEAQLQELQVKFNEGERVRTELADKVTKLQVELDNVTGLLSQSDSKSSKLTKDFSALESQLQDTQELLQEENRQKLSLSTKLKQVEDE
# T1 sequence (O14950 2-172 partner limits assumed): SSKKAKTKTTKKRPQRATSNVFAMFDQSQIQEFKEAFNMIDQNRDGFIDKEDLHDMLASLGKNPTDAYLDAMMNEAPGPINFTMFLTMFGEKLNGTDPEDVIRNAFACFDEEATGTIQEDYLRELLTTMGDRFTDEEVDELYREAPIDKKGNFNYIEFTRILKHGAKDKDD
# T1 sequence (P60660 2-151 partner limits assumed): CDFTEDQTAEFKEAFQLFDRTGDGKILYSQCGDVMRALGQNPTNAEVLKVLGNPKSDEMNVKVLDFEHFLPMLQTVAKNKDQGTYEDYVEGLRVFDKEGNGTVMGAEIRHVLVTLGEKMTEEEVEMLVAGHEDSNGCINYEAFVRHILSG
# Chain of MLCK (Q15746 923-1914): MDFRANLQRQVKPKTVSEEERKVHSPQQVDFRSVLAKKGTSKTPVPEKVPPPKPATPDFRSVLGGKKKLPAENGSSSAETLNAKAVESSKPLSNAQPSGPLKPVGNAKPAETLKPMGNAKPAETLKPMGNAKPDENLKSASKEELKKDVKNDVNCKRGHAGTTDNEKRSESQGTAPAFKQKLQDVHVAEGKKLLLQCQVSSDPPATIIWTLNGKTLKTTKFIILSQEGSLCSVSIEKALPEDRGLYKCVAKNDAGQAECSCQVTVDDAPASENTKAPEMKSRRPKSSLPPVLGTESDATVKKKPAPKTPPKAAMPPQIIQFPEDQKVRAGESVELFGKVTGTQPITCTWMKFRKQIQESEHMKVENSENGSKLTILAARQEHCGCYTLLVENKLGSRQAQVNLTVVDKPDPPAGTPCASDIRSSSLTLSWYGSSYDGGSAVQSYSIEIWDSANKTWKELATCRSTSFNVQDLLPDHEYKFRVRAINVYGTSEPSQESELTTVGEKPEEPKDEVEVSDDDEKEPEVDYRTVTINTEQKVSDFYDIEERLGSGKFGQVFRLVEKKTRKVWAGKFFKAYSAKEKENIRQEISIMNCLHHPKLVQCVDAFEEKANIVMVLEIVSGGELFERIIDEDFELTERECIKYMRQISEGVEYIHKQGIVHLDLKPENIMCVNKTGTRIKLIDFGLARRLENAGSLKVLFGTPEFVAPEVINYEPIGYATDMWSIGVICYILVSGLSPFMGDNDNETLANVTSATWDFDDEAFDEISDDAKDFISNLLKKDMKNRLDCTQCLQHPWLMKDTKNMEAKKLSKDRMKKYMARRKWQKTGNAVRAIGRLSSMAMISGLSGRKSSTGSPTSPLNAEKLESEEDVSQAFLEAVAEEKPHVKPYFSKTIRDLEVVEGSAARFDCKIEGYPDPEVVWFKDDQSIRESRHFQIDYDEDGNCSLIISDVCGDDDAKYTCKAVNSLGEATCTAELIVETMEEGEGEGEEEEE
# T3 sequence (P79114 other isoform, or with tags, fused parts or gaps): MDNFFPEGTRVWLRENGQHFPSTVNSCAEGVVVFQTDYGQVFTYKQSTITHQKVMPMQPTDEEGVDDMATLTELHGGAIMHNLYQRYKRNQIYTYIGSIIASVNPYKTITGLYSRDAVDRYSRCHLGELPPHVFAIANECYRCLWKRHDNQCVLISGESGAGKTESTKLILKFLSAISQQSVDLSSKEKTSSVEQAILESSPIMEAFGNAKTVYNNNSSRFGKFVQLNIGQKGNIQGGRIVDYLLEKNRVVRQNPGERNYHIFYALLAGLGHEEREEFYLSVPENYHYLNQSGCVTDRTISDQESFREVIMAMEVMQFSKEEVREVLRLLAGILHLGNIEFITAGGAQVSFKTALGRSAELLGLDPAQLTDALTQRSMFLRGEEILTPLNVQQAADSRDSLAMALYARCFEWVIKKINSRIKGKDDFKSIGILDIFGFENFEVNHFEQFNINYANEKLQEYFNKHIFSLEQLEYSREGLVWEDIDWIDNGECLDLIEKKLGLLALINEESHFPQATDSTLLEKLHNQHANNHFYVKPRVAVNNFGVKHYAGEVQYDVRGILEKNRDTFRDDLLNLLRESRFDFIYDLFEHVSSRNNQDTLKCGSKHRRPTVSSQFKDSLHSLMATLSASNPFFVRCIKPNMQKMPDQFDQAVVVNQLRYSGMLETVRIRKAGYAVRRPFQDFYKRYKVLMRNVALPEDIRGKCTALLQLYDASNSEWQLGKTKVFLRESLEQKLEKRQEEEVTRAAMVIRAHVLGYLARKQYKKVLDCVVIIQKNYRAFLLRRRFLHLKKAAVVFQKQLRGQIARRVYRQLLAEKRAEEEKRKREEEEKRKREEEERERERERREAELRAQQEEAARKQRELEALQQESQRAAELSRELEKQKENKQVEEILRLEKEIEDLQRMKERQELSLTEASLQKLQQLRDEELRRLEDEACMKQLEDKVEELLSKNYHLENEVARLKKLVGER
SMILES,inhibition of ATP-induced retraction of stress fiber ends (contractility) ([1]; 100 μM pAB),effect on traction forces exerted by cells (REF52 fibroblast),inhibition of ATP-induced retraction of stress fiber ends (contractility) ([1]; >100 μM SMIFH2),inhibition of ATP-induced retraction of stress fiber ends ([1]; ∼50μM SMIFH2),velocity of centripetal movement of transverse arcs (myosin 2 filaments) (HFF cells),ATP-induced centripetal movement of myosin 2 filaments (permeabilized HFF cells),IC50 [2],IC50 [3],inhibition of MLCK activity (MLCK),Velocity of actin filaments ([4]; 50 μM SMIFH2),Velocity of actin filaments ([4]; 100 μM SMIFH2),Velocity of actin filaments ([4]; 150 μM SMIFH2),Velocity of actin filaments ([4]; 150 μM SMIFH2 followed by washout),Velocity of actin filaments ([4]; 200 μM SMIFH2),IC50 (Drosophila myosin 5),IC50 (Drosophila myosin 7a),IC50 (bovine myosin 10),IC50 (mDia1),IC50 [5],effect on assembly of pure actin (pure actin)
"Cc1ccc2c(c1)C(=O)[C@]1(O)CCN(c3ccc(N)cc3)C1=N2 [pAB, para-aminoblebbistatin]",complete inhibition,,,,,,,,,,,,,,,,,,,
O=C1NC(=S)N(c2cccc(Br)c2)C(=O)C1=Cc1ccco1 [SMIFH2],,inhibition of traction forces,complete inhibition,~50%,decreased in dose-dependent manner,blocked centripetal movement,50 µM and ~50 µM,~40 µM,no effect; also recorded: did not inhibit,4.1* μm/s,4.1* μm/s,completely abolished; also recorded: No movement,could not be reversed; also recorded: No movement,No movement,2000 nM and ~2000 nM,30 µM and ~30 µM,15 µM and ~15 µM,~15 µM,5 to 15 µM,did not affect

# Source: PMC8121067 (Journal of Cell Science, 2021)
